Active and inactive are the calls of the source. The calls are words filed in the database; no cut-off is given here.

The nature of data set [1]: Stability in dog liver microsomes assessed as half life incubated in presence of NADPH by LC-MS/MS analysis. The format is ADME, Canis lupus familiaris, Microsome.
Data set [2] has as its system DU-145. Nature of the data set: Induction of apoptosis in human DU-145 cells assessed as late apoptotic cells at 0.1 uM incubated for 48 hrs by Annexin V-FITC/PI staining based flow cytometry analysis (reference value: 2.05%). The class given is functional.
Data set [3] has as its system DU-145. Nature of the data set: Induction of G2/M phase cell cycle arrest in human DU-145 cells assessed as increase in histone H3 phosphorylation at Ser10 residue at 0.03 to 0.3 uM measured after 12 hrs by Western blot analysis. The class given is functional, cell-based. The following applies: dose 0.03-0.3 µM.
The subject of a further data set is MCF7R. The data set is described as follows: Antiproliferative activity against paclitaxel-resistant human MCF7R cells assessed as inhibition of cell growth incubated for 72 hrs by MTT assay. The format is functional, cell-based. The conditions noted are these: read-out: IC50.
Data set [4] is described as follows: Half life in Kunming mouse at 2 mg/kg, iv by LC-MS/MS analysis. The format is ADME, organism-based. The conditions noted are these: in vivo.
A short description of data set [5]: Stability in human liver microsomes assessed as half life incubated in presence of NADPH by LC-MS/MS analysis. The format is ADME, Microsome.
The nature of data set [6]: Stability in monkey liver microsomes assessed as half life incubated in presence of NADPH by LC-MS/MS analysis. The conditions noted are these: rhesus monkey. The class given is ADME, Macaca mulatta, Microsome.
In the next data set the target is Tubulin (Homo sapiens) (UniProt P68371+Q9H4B7+P0DPH7+P68366+Q13509+Q71U36+P04350+Q3ZCM7+P07437+P68363+Q9BQE3+Q6PEY2+Q13885+Q9BVA1+Q9BUF5). The data set is described as follows: Disruption of microtubule network in human DU-145 cells assessed as cell shrinkage at 0.1 uM incubated for 16 hrs by Hoechst staining based confocal microscopy analysis.
A further data set deals with NCI-H1437. Nature of the data set: Antiproliferative activity against human NCI-H1437 cells assessed as inhibition of cell growth incubated for 72 hrs by MTT assay. The class given is functional, cell-based. The following applies: NCI-H1437, 72 h.
For data set [7], the system named is DU-145. The data set is described as follows: Induction of G2/M phase cell cycle arrest in human DU-145 cells assessed as decrease in Cdc2 phosphorylation at T14/Y15 residue at 0.03 to 0.3 uM measured after 12 hrs by Western blot analysis. The class given is functional, cell-based. The following applies: dose 0.03-0.3 µM.

Take `Cc1ccc(S(=O)(=O)Nc2cc(C(=O)NCc3ccc(C)nc3)ccc2C)cc1`: the half-life in [1] was 132 min; in data set [4], 10.8 min; in data set [5], 24 min; in data set [6], 95 min. The Activity in the data set with DU-145 [2] is 26.61%. For the same molecule, the result in the data set with DU-145 [3], on Tubulin (Homo sapiens) and in the data set with DU-145 [7] was Active. Also, the figures for the IC50 with MCF7R and in the data set with NCI-H1437 were 14 nM and 2 nM, respectively.

These data come from ChEMBL document CHEMBL5150075 (J Med Chem, 2022).
